According to patent publication US11180504B2 (ORCHID PHARMA LTD., priority 2016, dated 2021):
In brackets after ≈: the same amount, converted by molar mass. Where two headings read alike, the source gives them in different places.

What was measured:
[1] = test system: carbapenemase producing K. pneumoniae; assay: MIC by broth micro-dilution (CLSI), carbapenemase producing K. pneumoniae; assay type: cell-based, Klebsiella pneumoniae
[2] = test system: carbapenem sensitive Escherichia coli; assay: MIC by broth micro-dilution (CLSI), carbapenem sensitive E. coli; assay type: cell-based
[3] = test system: carbapenem sensitive Pseudomonas aeruginosa; assay: MIC by broth micro-dilution (CLSI), carbapenem sensitive P. aeruginosa; assay type: cell-based
[4] = test system: methicillin-sensitive Staphylococcus aureus; assay: MIC by broth micro-dilution (CLSI), methicillin-sensitive S. aureus; assay type: cell-based; settings: MSSA S. aureus ATCC29213
[5] = Klebsiella pneumoniae, ATCCBAA1705, KPC-2 K. pneumoniae ATCC BAA-1705, read-out: MIC
[6] = Escherichia coli, ATCC25922, ESBL −ve E. coli ATCC25922, read-out: MIC
[7] = Pseudomonas aeruginosa, ATCC27853, Meropenem susceptible P. aeruginosa ATCC27853, read-out: MIC
[8] = Staphylococcus aureus, ATCC 29213 / MSSA, read-out: MIC

Row | Structure (SMILES) | MIC [1, 5] [µg/mL] | MIC [2, 6] [µg/mL] | MIC [3, 7] [µg/mL] | MIC [4, 8] [µg/mL] | MIC ([1]; KPC-2 K. pneumoniae ATCC BAA-1705) [µg/mL] | MIC ([2]; ESBL −ve E. coli ATCC25922) [µg/mL] | MIC ([3]; Meropenem susceptible P. aeruginosa ATCC27853) [µg/mL] | MIC [4] [µg/mL]
1 | C[C@@H](NC(=O)Cn1cnnn1)[C@H]1C(=O)N2C(C(=O)O)=C(S[C@@H]3CN[C@H](C(=O)N4CC(N)C(CO)C4)C3)[C@H](C)[C@H]12 (single isomer, unassigned) [Example 586] | 1 (≈ 1.77 µM) | 0.25 (≈ 0.444 µM) | 2 (≈ 3.55 µM) | 4 (≈ 7.1 µM) |  |  |  | 
2 | C[C@@H](NC(=O)Cn1cnnn1)[C@H]1C(=O)N2C(C(=O)O)=C(S[C@@H]3CN[C@H](C(=O)N4CC(N)C(CO)C4)C3)[C@H](C)[C@H]12 (single isomer, unassigned) [Example 587] |  |  |  |  | 2 (≈ 3.55 µM) | 0.25 (≈ 0.444 µM) | 2 (≈ 3.55 µM) | 4 (≈ 7.1 µM)
3 | C[C@@H](NC(=O)Cn1cnnn1)[C@H]1C(=O)N2C(C(=O)O)=C(S[C@@H]3CN[C@H](C(=O)N4CC5CNC5C4)C3)[C@H](C)[C@H]12 (single isomer, unassigned) [Example 590] | 1 (≈ 1.83 µM) | 0.25 (≈ 0.458 µM) | 1 (≈ 1.83 µM) | 4 (≈ 7.33 µM) |  |  |  | 
4 | C[C@@H](NC(=O)Cn1cnnn1)C1C(=O)N2C(C(=O)O)=C(S[C@@H]3CN[C@H](C(=O)N4CCN(C[C@@H](F)CN)CC4)C3)[C@H](C)C12 (stereo in doubt) [Example 462, (4R,5S,6R)-6-((R)-1-(2-(1H-tetrazol-1-yl)acetamido)ethyl)-3-((3S,5S)-5-(4-((S)-3-amino-2-fluoropropyl)piperazine-1-carbonyl)pyrrolidin-3-ylthio)-4-methyl-7-oxo-1-azabicyclo[3.2.0]hept-2-ene-2-carboxylic acid] | 1 (≈ 1.64 µM) | 0.25 (≈ 0.411 µM) | 2 (≈ 3.29 µM) | 4 (≈ 6.57 µM) |  |  |  | 
5 | C[C@@H](NC(=O)CC1CCCN1)[C@H]1C(=O)N2C(C(=O)O)=C(S[C@@H]3CN[C@H](C(=O)N4CCC(N)C4)C3)[C@H](C)[C@H]12 (stereo in doubt) [Example 509, (4R,5S,6R)-3-((3S,5S)-5-((R)-3-aminopyrrolidine-1-carbonyl)pyrrolidin-3-ylthio)-4-methyl-7-oxo-6-((R)-1-(2-((S)-pyrrolidin-2-yl)acetamido)ethyl)-1-azabicyclo[3.2.0]hept-2-ene-2-carboxylic acid] | 4 (≈ 7.48 µM) | 4 (≈ 7.48 µM) | 32 (≈ 59.8 µM) | 32 (≈ 59.8 µM) |  |  |  | 
6 | C[C@@H](NC(=O)Cn1cnnn1)[C@H]1C(=O)N2C(C(=O)O)=C(S[C@@H]3CN[C@H](CC(=O)N4CCC(N)C4)C3)[C@H](C)[C@H]12 (stereo in doubt) [Example 536, (4R,5S,6R)-6-((R)-1-(2-(1H-tetrazol-1-yl)acetamido)-ethyl)-3-((3S,5R)-5-(2-((R)-3-aminopyrrolidin-1-yl)-2-oxoethyl)pyrrolidin-3-ylthio)-4-methyl-7-oxo-1-azabicyclo[3.2.0]hept-2-ene-2-carboxylic acid] | 2 (≈ 3.65 µM) | 0.25 (≈ 0.457 µM) | 4 (≈ 7.3 µM) | 2 (≈ 3.65 µM) |  |  |  | 
7 | C[C@@H](NC(=O)C(F)F)[C@H]1C(=O)N2C(C(=O)O)=C(S[C@@H]3CN[C@H](C(=O)N4CCc5nc(N)sc5C4)C3)[C@H](C)[C@H]12 [Example 235] | 16 (≈ 28 µM) | 2 (≈ 3.5 µM) | > 128 | 2 (≈ 3.5 µM) |  |  |  | 
8 | C[C@@H](NC(=O)C(F)F)[C@H]1C(=O)N2C(C(=O)O)=C(S[C@@H]3CN[C@H](CNS(=O)(=O)N4CC[C@@H](N)C4)C3)[C@H](C)[C@H]12 [Example 236] | 4 (≈ 7.06 µM) | 2 (≈ 3.53 µM) | 128 (≈ 226 µM) | 2 (≈ 3.53 µM) |  |  |  | 
9 | C[C@@H](NC(=O)C(F)F)[C@H]1C(=O)N2C(C(=O)O)=C(S[C@@H]3CN[C@H](CNS(=O)(=O)N4CC[C@H](N)C4)C3)[C@H](C)[C@H]12 [Example 237] | 4 (≈ 7.06 µM) | 2 (≈ 3.53 µM) | 128 (≈ 226 µM) | 1 (≈ 1.76 µM) |  |  |  | 
10 | C[C@@H](NC(=O)CNC(=N)N)[C@H]1C(=O)N2C(C(=O)O)=C(S[C@@H]3CN[C@H](C(=O)N(C)C)C3)[C@H](C)[C@H]12 [Example 241] | 2 (≈ 4.15 µM) | 2 (≈ 4.15 µM) | 32 (≈ 66.4 µM) | 16 (≈ 33.2 µM) |  |  |  | 
11 | C[C@@H](NC(=O)CNC(=N)N)[C@H]1C(=O)N2C(C(=O)O)=C(S[C@@H]3CN[C@H](C(=O)N4CC[C@@H](N)C4)C3)[C@H](C)[C@H]12 [Example 242] | 2 (≈ 3.83 µM) | 2 (≈ 3.83 µM) | 8 (≈ 15.3 µM) | 16 (≈ 30.6 µM) |  |  |  | 
12 | C[C@@H](NC(=O)C(F)F)[C@H]1C(=O)N2C(C(=O)O)=C(S[C@@H]3CN[C@H](C(=O)N(C)Cc4cc(=O)c(O)cn4C)C3)[C@H](C)[C@H]12 [Example 243] | 32 (≈ 54.8 µM) | 16 (≈ 27.4 µM) | > 128 | 32 (≈ 54.8 µM) |  |  |  | 
13 | C[C@@H](NC(=O)C(F)F)[C@H]1C(=O)N2C(C(=O)O)=C(S[C@@H]3CN[C@H](CN)C3)[C@H](C)[C@H]12 [Example 244] | 4 (≈ 9.56 µM) | 1 (≈ 2.39 µM) | 64 (≈ 153 µM) | 1 (≈ 2.39 µM) |  |  |  | 
14 | C[C@@H](NC(=O)CN)[C@H]1C(=O)N2C(C(=O)O)=C(S[C@@H]3CN[C@H](C(=O)N4CC[C@@H](N)C4)C3)[C@H](C)[C@H]12 [Example 245] | 4 (≈ 8.32 µM) | 2 (≈ 4.16 µM) | 4 (≈ 8.32 µM) | 8 (≈ 16.6 µM) |  |  |  | 
15 | C[C@@H](NC(=O)C(F)F)[C@H]1C(=O)N2C(C(=O)O)=C(S[C@@H]3CN[C@H](C(=O)N4CC[C@H](NCc5cc(=O)c(O)cn5C)C4)C3)[C@H](C)[C@H]12 [Example 246] | 128 (≈ 200 µM) | 8 (≈ 12.5 µM) | > 128 | 32 (≈ 50.1 µM) |  |  |  | 
16 | C[C@@H](NC(=O)C(F)F)[C@H]1C(=O)N2C(C(=O)O)=C(S[C@@H]3CN[C@H](C(=O)N4C[C@H](NC(=N)N)[C@@H](O)C4)C3)[C@H](C)[C@H]12 [Example 247] | 32 (≈ 57.2 µM) | 4 (≈ 7.15 µM) | > 128 | 32 (≈ 57.2 µM) |  |  |  | 
17 | C[C@@H](NC(=O)C(F)F)[C@H]1C(=O)N2C(C(=O)O)=C(S[C@@H]3CN[C@@H](C(=O)N(C)C)C3)[C@H](C)[C@H]12 [Example 248] | 4 (≈ 8.69 µM) | 1 (≈ 2.17 µM) | > 128 | 1 (≈ 2.17 µM) |  |  |  | 
18 | C[C@@H](NC(=O)C(F)F)[C@H]1C(=O)N2C(C(=O)O)=C(S[C@@H]3CN[C@H](C(=O)C4C[C@@H](N)C[C@H]4CF)C3)[C@H](C)[C@H]12 (some centres unmarked) [Example 251] | 0.5 (≈ 0.939 µM) | 0.25 (≈ 0.469 µM) | 32 (≈ 60.1 µM) | 0.5 (≈ 0.939 µM) |  |  |  | 
19 | CNCC(=O)N[C@H](C)[C@H]1C(=O)N2C(C(=O)O)=C(S[C@@H]3CN[C@H](CNS(=O)(=O)N4CCNCC4)C3)[C@H](C)[C@H]12 [Example 252] | 4 (≈ 7.15 µM) | 2 (≈ 3.57 µM) | 16 (≈ 28.6 µM) | 16 (≈ 28.6 µM) |  |  |  | 
20 | CNCC(=O)N[C@H](C)[C@H]1C(=O)N2C(C(=O)O)=C(S[C@@H]3CN[C@H](CNS(=O)(=O)N4CC[C@H](N)C4)C3)[C@H](C)[C@H]12 [Example 253] | 16 (≈ 28.6 µM) | 16 (≈ 28.6 µM) | 16 (≈ 28.6 µM) | 32 (≈ 57.2 µM) |  |  |  | 
21 | CNCC(=O)N[C@H](C)[C@H]1C(=O)N2C(C(=O)O)=C(S[C@@H]3CN[C@H](CNC(=O)c4cc(=O)c(O)cn4C)C3)[C@H](C)[C@H]12 [Example 254] | 16 (≈ 28.4 µM) | 8 (≈ 14.2 µM) | 128 (≈ 227 µM) | 64 (≈ 114 µM) |  |  |  | 
22 | CNCC(=O)N[C@H](C)[C@H]1C(=O)N2C(C(=O)O)=C(S[C@@H]3CN[C@H](CNC(=O)[C@H]4CC[C@@H](N)C4)C3)[C@H](C)[C@H]12 [Example 255] | 8 (≈ 15.3 µM) | 4 (≈ 7.65 µM) | 32 (≈ 61.2 µM) | 8 (≈ 15.3 µM) |  |  |  | 
23 | CNCC(=O)N[C@H](C)[C@H]1C(=O)N2C(C(=O)O)=C(SC3CN(C4=NCCS4)C3)[C@H](C)[C@H]12 [Example 256] | 2 (≈ 4.41 µM) | 1 (≈ 2.2 µM) | 32 (≈ 70.5 µM) | 4 (≈ 8.82 µM) |  |  |  | 
24 | CNCC(=O)N[C@H](C)[C@H]1C(=O)N2C(C(=O)O)=C(SCCn3cc(O)c(=O)cc3CN)[C@H](C)[C@H]12 [Example 257] | 16 (≈ 33.4 µM) | 4 (≈ 8.34 µM) | 128 (≈ 267 µM) | > 128 |  |  |  | 
25 | C[C@@H](NC(=O)C(F)F)[C@H]1C(=O)N2C(C(=O)O)=C(S[C@@H]3CN[C@H](CNC(=O)[C@H]4CC[C@@H](N)C4)C3)[C@H](C)[C@H]12 [Example 258] | 16 (≈ 30.2 µM) | 4 (≈ 7.55 µM) | 128 (≈ 242 µM) | 1 (≈ 1.89 µM) |  |  |  | 
26 | C[C@@H](NC(=O)C(F)F)[C@H]1C(=O)N2C(C(=O)O)=C(S[C@@H]3CN[C@H](CNC(=O)[C@@H]4C[C@H](N)CN4)C3)[C@H](C)[C@H]12 [Example 259] | 16 (≈ 30.2 µM) | 4 (≈ 7.54 µM) | > 128 | 2 (≈ 3.77 µM) |  |  |  | 
